The structures appear in SMILES notation. Read-outs that look alike come from different tables or passages of the source. Numbered stars: 1 amine (or outer) side, 2 acyl side, 3 side chain; on linkers, the order of the positions; unused ones are H or OH. Bridge positions count the residues as written; N and C are the ends. Square brackets hold non-standard residues; d marks the D form. Peptide text beside a SMILES is read from it. Trp(βS-Me,7-OMe) = COc1cccc2c([C@H](C)[C@H](N)C(=O)O)c[nH]c12; Morpholine(3S-CO,6,6-Me2) = CC1(C)CN[C@H](C(=O)O)CO1; Trp(βS-Me) = C[C@@H](c1c[nH]c2ccccc12)[C@H](N)C(=O)O; Phe(2-F,4-COOH) = N[C@@H](Cc1ccc(C(=O)O)cc1F)C(=O)O; Trp(7-CN) = N#Cc1cccc2c(C[C@H](N)C(=O)O)c[nH]c12; Trp(7-Cl) = N[C@@H](Cc1c[nH]c2c(Cl)cccc12)C(=O)O; Phe(4-CONH2) = NC(=O)c1ccc(C[C@H](N)C(=O)O)cc1; Phe(4-COOH) = N[C@@H](Cc1ccc(C(=O)O)cc1)C(=O)O; 4Pal(3S-Me) = C[C@@H](c1ccncc1)[C@H](N)C(=O)O; Trp(7-aza) = N[C@@H](Cc1c[nH]c2ncccc12)C(=O)O; Phe(4-CH2NH2) = NCc1ccc(C[C@H](N)C(=O)O)cc1; Pip(5R-OH) = O=C(O)[C@@H]1CC[C@@H](O)CN1; X1 = O=C([C@@H]1CC[C@H](N[*:1])C1)[*:2]; 2Nal = N[C@@H](Cc1ccc2ccccc2c1)C(=O)O; 4Pal = N[C@@H](Cc1ccncc1)C(=O)O; dHyp = O=C(O)[C@H]1C[C@H](O)CN1; Cit = NC(=O)NCCC[C@H](N)C(=O)O; Ahp(2) = CCCCC[C@H](N)C(=O)O; NEtAla = CCN[C@@H](C)C(=O)O; αMeS = C[C@](N)(CO)C(=O)O; Nle = CCCC[C@H](N)C(=O)O; Sar = CNCC(=O)O

The target in assay [1] is T1, TNFα-induced NF-κB signal transduction pathway (TNFR1 signaling) in THP-1 cells (Homo sapiens, UniProt P19438).
T1 sequence (P19438 30-455): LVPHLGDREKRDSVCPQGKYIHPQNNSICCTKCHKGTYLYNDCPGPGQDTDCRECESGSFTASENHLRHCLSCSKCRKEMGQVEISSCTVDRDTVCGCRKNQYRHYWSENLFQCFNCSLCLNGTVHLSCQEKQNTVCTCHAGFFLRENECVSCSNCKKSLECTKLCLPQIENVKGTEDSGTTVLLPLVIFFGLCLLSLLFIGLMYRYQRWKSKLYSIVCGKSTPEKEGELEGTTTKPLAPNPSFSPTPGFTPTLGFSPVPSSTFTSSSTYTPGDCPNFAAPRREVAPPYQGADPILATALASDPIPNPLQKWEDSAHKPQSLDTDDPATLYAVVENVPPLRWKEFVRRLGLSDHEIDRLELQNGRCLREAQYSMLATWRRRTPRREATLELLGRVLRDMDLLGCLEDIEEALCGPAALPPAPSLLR
As to the kind of experiment: THP-1 Lucia NF-κB reporter cell assay, inhibition of TNFα-induced NF-κB signaling. Conditions: THP-1 NF-κB Lucia reporter cells, 10 ng/mL TNFα, 16-18 h, secreted luciferase; read-out: THP-1 IC50. It counts as cell-based. The method, boiled down:
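Read-out: secreted Lucia luciferase luminescence (QUANTI-Luc) from supernatant after 16-18 h, 37 °C, 10 ng/mL rhTNFα. Peptide pretreatment 1 h at 37 °C; 20,000 cells/well, selection antibiotics omitted. IC50 via 4-parameter logistic model against min/max controls.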

Assay [2] deals with T2, human TNFR1 extracellular domain (ECD) protein (Homo sapiens, UniProt P19438).
T2 construct: HRV 3C protease cleavage site (C); 6His (C, cleaved yes); made in house; host or cells: Sf21 insect cells (baculovirus), secreted
T2 sequence (P19438 30-211): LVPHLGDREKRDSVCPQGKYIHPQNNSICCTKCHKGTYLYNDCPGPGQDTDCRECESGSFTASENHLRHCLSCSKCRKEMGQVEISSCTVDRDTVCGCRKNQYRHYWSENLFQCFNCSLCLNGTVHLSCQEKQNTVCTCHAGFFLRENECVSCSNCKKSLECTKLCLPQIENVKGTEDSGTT
Briefly: SPR binding affinity to captured human TNFR1 ECD. An outline of the steps: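 Read-out: kon, koff and derived affinity from SPR response units. Human TNFR1 and TNFR2 ECD, Avi-tag biotinylated with BirA, captured on a streptavidin surface; peptides injected under laminar flow in HEPES-saline with EDTA, P20 and 2% DMSO.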

Where [3] appears, read: biotinylated human TNFR1 ECD on streptavidin chip, from kon and koff, read-out: SPR hTNFR1 KD.

Usually IC50 stands for the point on the concentration scale where inhibition reaches its midpoint. Usually Kd stands for a measure of binding affinity in units of concentration. In the case of `C[C@@H](c1c[nH]c2ccccc12)[C@@H]1NC(=O)CN(C)C(=O)[C@H](Cc2ccc(CN)cc2)NC(=O)[C@H](Cc2ccc(C(=O)O)cc2)NC(=O)[C@](C)(CO)NC(=O)[C@H](Cc2ccc3ccccc3c2)NC(=O)[C@H](Cc2ccc(CN)cc2)NC(=O)[C@H](CC(N)=O)NC(=O)[C@H]2CCCN2C(=O)[C@H]([C@@H](C)c2c[nH]c3ccccc23)NC(=O)[C@H](CO)NC(=O)[C@H](Cc2ccc(CN)cc2)NC(=O)[C@H](CCCNC(N)=O)NC(=O)CSC[C@@H](C(N)=O)NC1=O` [SEQ ID NO. 206] ({CH2CO}-[Cit][Phe(4-CH2NH2)]S[Trp(βS-Me)][dP]N[Phe(4-CH2NH2)][2Nal][αMeS][Phe(4-COOH)][Phe(4-CH2NH2)][Sar][Trp(βS-Me)]C-NH2; thioether N-14), in assay [1], the IC50 turned out to be 271 nM. Moreover, in assay [2] (setting [3]), the dissociation constant (Kd) is 3 nM.
Take `CCCC[C@@H]1NC(=O)CSC[C@@H](C(N)=O)NC(=O)[C@H]([C@@H](C)c2c[nH]c3c(OC)cccc23)NC(=O)CN(C)C(=O)[C@H](Cc2ccc(O)cc2)NC(=O)[C@H](Cc2ccc(C(=O)O)cc2)NC(=O)[C@](C)(CO)NC(=O)[C@H](Cc2c[nH]c3c(Cl)cccc23)NC(=O)[C@H](Cc2ccncc2)NC(=O)[C@H](CC(N)=O)NC(=O)[C@H](C)N(CC)C(=O)[C@H](Cc2c[nH]c3ccccc23)NC(=O)[C@@H]2COC(C)(C)CN2C(=O)[C@H](Cc2ccncc2)NC1=O` [SEQ ID NO. 183] ({CH2CO}-[Nle][4Pal][Morpholine(3S-CO,6,6-Me2)]W[NEtAla]N[4Pal][Trp(7-Cl)][αMeS][Phe(4-COOH)]Y[Sar][Trp(βS-Me,7-OMe)]C-NH2; thioether N-14): in assay [1], the 50% inhibitory concentration (IC50) was 2.8 nM. Besides, the Kd in assay [2] (setting [3]) is 0.1 nM.
For `CCCC[C@@H]1NC(=O)[C@@H]2CC[C@@H](C2)NC(=O)[C@H]([C@@H](C)c2c[nH]c3c(OC)cccc23)NC(=O)CN(C)C(=O)[C@H](Cc2ccc(C(=O)O)cc2F)NC(=O)[C@H](Cc2ccc(C(N)=O)cc2)NC(=O)[C@](C)(CO)NC(=O)[C@H](Cc2c[nH]c3c(Cl)cccc23)NC(=O)[C@H](Cc2ccc(C(=O)O)cc2F)NC(=O)[C@H](CC(N)=O)NC(=O)[C@H]2C[C@H](O)CN2C(=O)[C@H](Cc2c[nH]c3ccccc23)NC(=O)[C@@H]2CC[C@@H](O)CN2C(=O)[C@H](Cc2ccncc2)NC1=O` [SEQ ID NO. 41] (cyclo([4Pal][Pip(5R-OH)]W[dHyp]N[Phe(2-F,4-COOH)][Trp(7-Cl)][αMeS][Phe(4-CONH2)][Phe(2-F,4-COOH)][Sar][Trp(βS-Me,7-OMe)][X1][Nle])), the IC50 in assay [1] stood at 0.6 nM. In assay [2], this compound displayed a Kd of 0.12 nM.
The matching figures for `CCCCC[C@@H]1NC(=O)[C@@H]2CC[C@@H](C2)NC(=O)[C@H]([C@@H](C)c2c[nH]c3c(OC)cccc23)NC(=O)CN(C)C(=O)[C@H](Cc2ccc(C(N)=O)cc2)NC(=O)[C@H](Cc2ccc(C(N)=O)cc2)NC(=O)[C@](C)(CO)NC(=O)[C@H](Cc2c[nH]c3c(C#N)cccc23)NC(=O)[C@H](Cc2ccc(C(=O)O)cc2)NC(=O)[C@H](CC(N)=O)NC(=O)[C@H]2C[C@H](O)CN2C(=O)[C@H](Cc2c[nH]c3ccccc23)NC(=O)[C@H](CCC(N)=O)NC(=O)[C@H]([C@@H](C)c2ccncc2)NC1=O` [SEQ ID NO. 70] (cyclo([Ahp(2)][4Pal(3S-Me)]QW[dHyp]N[Phe(4-COOH)][Trp(7-CN)][αMeS][Phe(4-CONH2)][Phe(4-CONH2)][Sar][Trp(βS-Me,7-OMe)][X1])): 0.9 nM and 0.07 nM.
Take `CCCC[C@@H]1NC(=O)[C@@H]2CC[C@@H](C2)NC(=O)[C@H]([C@@H](C)c2c[nH]c3c(OC)cccc23)NC(=O)CN(C)C(=O)[C@H](Cc2ccc(C(N)=O)cc2)NC(=O)[C@H](Cc2ccc(C(N)=O)cc2)NC(=O)[C@](C)(CO)NC(=O)[C@H](Cc2c[nH]c3c(C#N)cccc23)NC(=O)[C@H](Cc2ccc(C(=O)O)cc2)NC(=O)[C@H](CC(N)=O)NC(=O)[C@H]2C[C@H](O)CN2C(=O)[C@H](Cc2c[nH]c3ncccc23)NC(=O)[C@@H]2CC[C@@H](O)CN2C(=O)[C@H](Cc2ccncc2)NC1=O` [SEQ ID NO. 254] (cyclo([4Pal][Pip(5R-OH)][Trp(7-aza)][dHyp]N[Phe(4-COOH)][Trp(7-CN)][αMeS][Phe(4-CONH2)][Phe(4-CONH2)][Sar][Trp(βS-Me,7-OMe)][X1][Nle])): the IC50 in assay [1] came to 0.4 nM. Moreover, the dissociation constant (Kd) in assay [2] (setting [3]) turned out to be 0.02 nM.

Source of the values: patent US20240287138A1, “CYCLIC PEPTIDES FOR INHIBITING TNF RECEPTOR 1 ACTIVITY” (Merck Sharp & Dohme LLC, priority 2023, published 2024).
